Results: patent US9353082B2, “Pharmaceutical compounds” (BIAL—PORTELA & CA, S.A., priority 2008, dated 2016)

biological target: T1, FAAH (Rattus norvegicus, UniProt P97612); test: In vitro FAAH activity in rat brain membranes, 3H-AEA substrate, % of control; format: biochemical, Wistar rats; settings: 100 nM test compound, low value = strong inhibitor
T1 construct: Frozen brains (without cerebellum) from Wistar rats were used; from tissue; host or cells: Wistar rat brain (without cerebellum), washed membrane pellets
T1 sequence (P97612 1-579): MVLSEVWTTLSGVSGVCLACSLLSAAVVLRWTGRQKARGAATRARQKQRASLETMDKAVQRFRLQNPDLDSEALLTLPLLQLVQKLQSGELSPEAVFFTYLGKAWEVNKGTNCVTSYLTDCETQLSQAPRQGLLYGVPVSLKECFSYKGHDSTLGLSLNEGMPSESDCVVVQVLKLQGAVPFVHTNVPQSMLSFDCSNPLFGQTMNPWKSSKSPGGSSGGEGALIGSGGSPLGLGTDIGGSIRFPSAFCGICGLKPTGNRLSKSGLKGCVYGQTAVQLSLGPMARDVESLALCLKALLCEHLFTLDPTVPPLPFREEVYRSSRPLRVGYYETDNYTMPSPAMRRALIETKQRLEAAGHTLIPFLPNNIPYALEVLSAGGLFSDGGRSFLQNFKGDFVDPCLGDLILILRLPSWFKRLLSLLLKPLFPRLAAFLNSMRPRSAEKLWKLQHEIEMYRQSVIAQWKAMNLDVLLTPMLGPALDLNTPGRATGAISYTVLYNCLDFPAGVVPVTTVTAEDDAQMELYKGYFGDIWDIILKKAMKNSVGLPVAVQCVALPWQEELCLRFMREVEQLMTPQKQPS
Experimental: 3. Biological Efficacy of Compounds of the Invention The in vitro test was performed according to the protocol described below. The controls for both in vitro and in vivo were the reaction mix minus the test compounds. Therefore, a low value in Table 1 below for the test compounds indicates a strong inhibitor.
The in vitro pharmaceutical FAAH activity was determined according to the following method:
Frozen brains (without cerebellum) from Wistar rats were used, and each brain was homogenized in 15 ml 1 mM MgCL2, […] HEPES pH 7.0 with Potter Elvejhem (8 strokes at 500 rpm). Homogenates were centrifuged for 20 min at 36000 g at 4° C. (Beckman, 70Ti rotor). Pellets were resuspended in 15 ml of the same buffer and centrifuged under the same conditions. Pellets were resuspended in 15 ml of the same buffer and incubated for 15 min at 37° C. after which they were centrifuged for 20 min at 36000 g at 4° C. Each pellet was then resuspended in 15 ml 3 mM MgCl2, 1 mM EDTA, 50 mM Tris pH 7.4 and protein determined with BioRad Protein Assay (BioRad) using a standard curve of BSA (50-250 μg/ml). The membrane suspensions were aliquoted and stored at −80° C.
The FAAH activity was determined using AEA (labelled with 3H in the ethanolamine part of the molecule) as substrate and measuring the 3H-ethanolamine formed. Reaction mix (total volume of 200 up contained: 2 μM AEA (2 μM AEA+5 nM 3H-AEA), 0.1% fatty acid free BSA, 5 μg protein, in 1 mM EDTA, 10 mM Tris pH 7.6 and 10 μM or 0.1 μM compounds. Stock solutions of the compounds to test (10 mM) were prepared in 100% DMSO and the DMSO concentration in the assay was 0.1%. After a 15 min preincubation period at 37° C., reaction was started by the addition of the substrate solution ([…]). Reaction was carried out for 10 min before termination by the addition of 400 μl activated charcoal suspension (8 g charcoal in 32 ml 0.5 M HCl in continuous agitation). After a 30 min incubation period at room temperature with agitation, charcoal was sedimented by centrifugation in microfuge (10 min at 13000 rpm). 200 μl of the supernatant were added to 800 μl Optiphase Supermix scintillation cocktail previously distributed in 24-well plates. Counts per minute (cpm) were determined in Microbeta TriLux scintillation counter (10 min counting or until s=2).
In each assay blanks (no protein, usually below 200 cpm) and controls (no compound) were present. The results are reported in Table 1 as % of control after blank subtraction.

How did the “In Vitro FAAH activity, 100 nM” value turn out when `O=C(N1CCC(c2ccccc2)CC1)n1nnc2ccccc21` [Compound 94, (1H-benzo[d][1,2,3]triazol-1-yl)(4-phenylpiperidin-1-yl)methanone] was run?
Its value is 0 % of control.

`CN(C(=O)n1nnc2cc(-c3cccc(C#N)c3)ccc21)C1CCCCC1` [Compound 95, 5-(3-cyanophenyl)-N-cyclohexyl-N-methyl-1H-benzo[d][1,2,3]triazole-1-carboxamide] was tested. Which “In Vitro FAAH activity, 100 nM” value did it give?
The value was 0.7 % of control.

With `CN(C(=O)n1nnc2cc(-c3ccc(F)cc3)ccc21)C1CCCCC1` [Compound 96, N-cyclohexyl-5-(4-fluorophenyl)-N-methyl-1H-benzo[d][1,2,3]triazole-1-carboxamide] as the molecule, how does the “In Vitro FAAH activity, 100 nM” value read?
Its value is 14.3 % of control.

How did the “In Vitro FAAH activity, 100 nM” value turn out when `O=C(N1CCCC1)n1nnc2ccccc21` [Compound 98, (1H-benzo[d][1,2,3]triazol-1-yl)(pyrrolidin-1-yl)methanone] was run?
Its value is 0.6 % of control.

Which “In Vitro FAAH activity, 100 nM” value does the source give for `O=C(N1CCN(c2ccccc2)CC1)n1cnc(-c2ccccc2)c1` [Compound 101, (4-phenyl-1H-imidazol-1-yl)(4-phenylpiperazin-1-yl)methanone] here?
Its value is 0.5 % of control.

For `O=C(N1CCN(Cc2ccccc2)CC1)n1cnc(-c2ccccc2)c1` [Compound 102, (4-benzylpiperazin-1-yl)(4-phenyl-1H-imidazol-1-yl)methanone], which “In Vitro FAAH activity, 100 nM” value is on record?
Its value is 0.9 % of control.

How did the “In Vitro FAAH activity, 100 nM” value turn out when `CN(C(=O)n1cnc(-c2ccccc2)c1)C1CCCCC1` [Compound 103, N-cyclohexyl-N-methyl-4-phenyl-1H-imidazole-1-carboxamide] was run?
The value was 37.5 % of control.

For `CCN(C(=O)n1nnc2ccccc21)C1CCCCC1` [Compound 104, N-cyclohexyl-N-ethyl-1H-benzo[d][1,2,3]triazole-1-carboxamide], which “In Vitro FAAH activity, 100 nM” value is on record?
Its value is 94.2 % of control.

With `Cl.O=C(N1CCC(CCN2CCCC2)CC1)n1nnc2ccccc21` [Compound 105, (1H-benzo[d][1,2,3]triazol-1-yl)(4-(2-(pyrrolidin-1-yl)ethyl)piperidin-1-yl)methanone hydrochloride] as the molecule, how does the “In Vitro FAAH activity, 100 nM” value read?
The value was 64.7 % of control.

`CN(C(=O)n1nnc2ccc(-c3ccc(F)cc3)cc21)C1CCCCC1` [Compound 106, N-cyclohexyl-6-(4-fluorophenyl)-N-methyl-1H-benzo[d][1,2,3]triazole-1-carboxamide] was tested. Which “In Vitro FAAH activity, 100 nM” value did it give?
Its value is 2.3 % of control.

Which “In Vitro FAAH activity, 100 nM” value does the source give for `CN(C(=O)n1nnc2cc(-c3cccc(C(=O)O)c3)ccc21)C1CCCCC1` [Compound 107, 3-(1-(cyclohexyl(methyl)carbamoyl)-1H-benzo[d][1,2,3]triazol-5-yl)benzoic acid] here?
Its value is 13.5 % of control.

Which “In Vitro FAAH activity, 100 nM” value does the source give for `CN(C(=O)n1nnc2cc(-c3cccc(C(N)=O)c3)ccc21)C1CCCCC1` [Compound 108, 5-(3-carbamoylphenyl)-N-cyclohexyl-N-methyl-1H-benzo[d][1,2,3]triazole-1-carboxamide] here?
Its value is 7.4 % of control.

`CN(C(=O)n1nnc2ccc(-c3cccc(C(N)=O)c3)cc21)C1CCCCC1` [Compound 109, 6-(3-carbamoylphenyl)-N-cyclohexyl-N-methyl-1H-benzo[d][1,2,3]triazole-1-carboxamide] was tested. Which “In Vitro FAAH activity, 100 nM” value did it give?
The value was 0 % of control.

`O=C(N1CCN(c2ccccc2)CC1)n1cnc(-c2ccccc2)n1` [Compound 111, (3-phenyl-1H-1,2,4-triazol-1-yl)(4-phenylpiperazin-1-yl)methanone] was tested. Which “In Vitro FAAH activity, 100 nM” value did it give?
The value was 1.5 % of control.

Which “In Vitro FAAH activity, 100 nM” value does the source give for `NC(=O)c1ccc(-c2cn(C(=O)N3CCN(Cc4ccccc4)CC3)cn2)cc1` [Compound 112, 4-(1-(4-benzylpiperazine-1-carbonyl)-1H-imidazol-4-yl)benzamide] here?
Its value is 7.2 % of control.

With `CN(CCc1ccccc1)C(=O)n1nnc2ccccc21` [Compound 115, N-methyl-N-phenethyl-1H-benzo[d][1,2,3]triazole-1-carboxamide] as the molecule, how does the “In Vitro FAAH activity, 100 nM” value read?
The value was 0 % of control.

Which “In Vitro FAAH activity, 100 nM” value does the source give for `O=C(N1CCC(Oc2ccc(Cl)cc2)CC1)n1nnc2ccccc21` [Compound 117, (1H-benzo[d][1,2,3]triazol-1-yl)(4-(4-chlorophenoxy)piperidin-1-yl)methanone] here?
The value was 0.1 % of control.

With `CN(CCCc1ccccc1)C(=O)n1nnc2ccccc21` [Compound 118, N-methyl-N-(3-phenylpropyl)-1H-benzo[d][1,2,3]triazole-1-carboxamide] as the molecule, how does the “In Vitro FAAH activity, 100 nM” value read?
The value was 0 % of control.

Which “In Vitro FAAH activity, 100 nM” value does the source give for `COc1cccc(CN(C)C(=O)n2nnc3ccccc32)c1` [Compound 119, N-(3-methoxybenzyl)-N-methyl-1H-benzo[d][1,2,3]triazole-1-carboxamide] here?
The value was 0 % of control.

For `O=C(N1CCC(Oc2ccccc2)CC1)n1nnc2ccccc21` [Compound 120, (1H-benzo[d][1,2,3]triazol-1-yl)(4-phenoxypiperidin-1-yl)methanone], which “In Vitro FAAH activity, 100 nM” value is on record?
Its value is 0.1 % of control.

With `CN1CCN(C2CCN(C(=O)n3nnc4ccccc43)CC2)CC1.Cl` [Compound 122, (1H-benzo[d][1,2,3]triazol-1-yl)(4-(4-methylpiperazin-1-yl)piperidin-1-yl)methanone hydrochloride] as the molecule, how does the “In Vitro FAAH activity, 100 nM” value read?
Its value is 93 % of control.

For `CN(Cc1cccc(Cl)c1)C(=O)n1nnc2ccccc21` [Compound 123, N-(3-chlorobenzyl)-N-methyl-1H-benzo[d][1,2,3]triazole-1-carboxamide], which “In Vitro FAAH activity, 100 nM” value is on record?
The value was 0 % of control.

With `Cl.O=C(N1CCN(Cc2ccccc2)CC1)n1cnc(-c2ccccc2)n1` [Compound 124, (4-benzylpiperazin-1-yl)(3-phenyl-1H-1,2,4-triazol-1-yl)methanone hydrochloride] as the molecule, how does the “In Vitro FAAH activity, 100 nM” value read?
The value was 1.5 % of control.

With `Cl.O=C(N1CCN(Cc2ccccc2)CC1)n1cnc(-c2ccc(OCc3ccccc3)cc2)n1` [Compound 125, (3-(4-(benzyloxy)phenyl)-1H-1,2,4-triazol-1-yl)(4-benzylpiperazin-1-yl)methanone hydrochloride] as the molecule, how does the “In Vitro FAAH activity, 100 nM” value read?
The value was 53.5 % of control.

Which “In Vitro FAAH activity, 100 nM” value does the source give for `O=C(N1CCC(OCc2ccccc2)CC1)n1nnc2ccccc21` [Compound 128, (1H-benzo[d][1,2,3]triazol-1-yl)(4-(benzyloxy)piperidin-1-yl)methanone] here?
The value was 0 % of control.

With `CN(Cc1ccc(F)cc1)C(=O)n1nnc2ccccc21` [Compound 130, N-(4-fluorobenzyl)-N-methyl-1H-benzo[d][1,2,3]triazole-1-carboxamide] as the molecule, how does the “In Vitro FAAH activity, 100 nM” value read?
Its value is 0 % of control.

Which “In Vitro FAAH activity, 100 nM” value does the source give for `CN(Cc1ccc2ccccc2c1)C(=O)n1nnc2ccccc21` [Compound 131, N-methyl-N-(naphthalen-2-ylmethyl)-1H-benzo[d][1,2,3]triazole-1-carboxamide] here?
The value was 0 % of control.

How did the “In Vitro FAAH activity, 100 nM” value turn out when `Cc1ccc(OC2CCN(C(=O)n3cnc(-c4ccc(N5CCN(C)CC5)cc4)n3)CC2)cc1.Cl` [Compound 132, (3-(4-(4-methylpiperazin-1-yl)phenyl)-1H-1,2,4-triazol-1-yl)(4-(p-tolyloxy)piperidin-1-yl)methanone hydrochloride] was run?
The value was 85.1 % of control.

How did the “In Vitro FAAH activity, 100 nM” value turn out when `O=C(N1CCOCC1)n1cnc(-c2ccc(N3CCN(Cc4ccccc4)CC3)cc2)n1` [Compound 133, (3-(4-(4-benzylpiperazin-1-yl)phenyl)-1H-1,2,4-triazol-1-yl)(morpholino)methanone] was run?
The value was 90.7 % of control.

same assay, conditions: 10 uM test compound, low value = strong inhibitor

`CN(C(=O)n1cnc(-c2ccccc2)c1)C1CCCCC1` [Compound 103, N-cyclohexyl-N-methyl-4-phenyl-1H-imidazole-1-carboxamide] was tested. Which “In Vitro FAAH activity, 10 uM” value did it give?
The value was 0 % of control.
